# Experiments:
# Pyricularia oryzae = experiment: microbe, parasite or virus in culture; type: cell-based; conditions: read-out: Minimum growth-inhibition concentration
# Escherichia coli NIHJ = experiment: Agar dilution assay, minimum growth inhibition concentration; type: cell-based; conditions: Escherichia coli, read-out: Minimum growth-inhibition concentration
# Candida tropicalis F-1 = experiment: as above; type: cell-based; conditions: Candida tropicalis, F1, read-out: Minimum growth-inhibition concentration
# [1] = test system: murine spleen cells (LPS-induced lymphocyte blastogenesis); experiment: Effect on LPS-induced murine lymphocyte blastogenesis in vitro (Test 4); type: cell-based, BALB/c mouse
# Method: (§1) In lymphocyte blast formation reaction, use was made of benastatin B as a solution prepared in a manner, wherein benastatin B was dissolved in methanol and admixed with PBS(-), with the proviso that the concentration of methanol in the final solution was 0.5%.
# (§2) (a) Effect on lymphocyte blast formation reaction
# (§3) For the cultivation, use was made of RPMI 1640 culture medium supplemented with 20% bovine fetus serum, 25 mM Hepes buffer, 100 μg/ml streptomycin and 100 units/ml penicillin G. The cultivation was carried out in a microplate (COSTAR) with flat bottom and with 96 wells. As the mitogens, lipopolysaccharide (LPS) and concanavalin A (Con A) were used at the final concentrations of 100 μg/ml and 5 μg/ml, respectively.
# (§4) Spleen cells were taken out from BALB/c mouse (female, at most 20 weeks old) to prepare a unicellular dispersion of spleen cells. This dispersion was subjected to a hyper shock treatment to remove erythrocytes therefrom. The resulting spleen cell sample was directly used in the test employing LPS. Alternatively, the spleen cell sample was filtered through Nylon Fiber (manufactured by Wako Jun-yaku Co., Ltd.) for removing […] therefrom, and then the cell sample was used in the test employing Con A.
# (§5) Each well was charged with 0.2 ml of a test sample containing 2×10^5 murine spleen cells and the test compound at a predetermined concentration. The cultivation was effected for 72 hours. Before 8 hours from the termination of the cultivation, the wells each were charged with 37 KBq of [^3 H]-thymidine in order to determine the amount of thymidine taken into the cells. The effect of the test compound was estimated by comparing the test samples with the control samples, with respect to the amount of [^3 H]-thymidine taken into the cells.
# [2] = test system: graft versus host reaction (GvH); experiment: Effect on graft versus host reaction (GvH) in vivo; set-up: species or system mouse (C57BL/6 spleen cells into BDF1 mouse); conditions: for Spleen/body weight / Index (spleen/body weight; non induced = 1.00): subcutaneous, 3 days, day 7; for Index (spleen/body weight; non induced = 1.00): induced = 1.84
# Source text: In the graft versus host reaction (GvH), use was made of benastatin B dissolved in physiological saline.
# (b) Effect on graft versus host reaction (GvH)
# The effect on GvH was estimated according to a modified method based on the method described in M. Simonsen et al, "A study of the graft versus host reaction in transplantation to embryos, F1 hybrids, and irradiated animals", Ann. N.Y. Acad. Sci., 73, 834-841 ([…]).
# Spleen cells were taken out from C57BL/6 mouse (female, 10 weeks old) to prepare a murine spleen cell sample containing 5×10^6 spleen cells according to the method as mentioned above. The spleen cell sample was transplanted into the abdominal cavity of BDF1 mouse (7 days old) as the F1 acceptor. The test compound at a predetermined concentration was subcutaneously injected over a period of time of 3 days including the initial day of said transplantation. After 7 days from the inital transplantation, measurements were made about the body weight and the spleen weight of the BDF1 mouse to calculate the ratio (mg/g) of spleen weight (mg) to body weight (g).
# [3] = test system: Klebsiella pneumoniae PCI602; experiment: Agar dilution assay, minimum growth inhibition concentration; type: cell-based; conditions: Klebsiella pneumoniae, PCI602, read-out: Minimum growth-inhibition concentration
# [4] = test system: Shigella dysenteriae JS11910; experiment: as above; type: cell-based; conditions: JS11910, read-out: Minimum growth-inhibition concentration
# [5] = test system: Pseudomanas aeruginosa A3; experiment: as above; type: cell-based; conditions: read-out: Minimum growth-inhibition concentration
# [6] = test system: Bacillus subtilis NRRL B-558; experiment: as above; type: cell-based; conditions: NRRLB558
# Method: (§6) The minimum of microorganism growth inhibition concentrations of benastatins A and B were determined for various bacteria, east and fungi according to a conventional agar dilution assay method. It will be seen from Table 1 that benastatins A and B have a satisfactory antimicrobial activity, particularly against gram-positive bacteria, etc.
# [7] = test system: Cryptococcus neoformans F-10; experiment: as above; type: cell-based; conditions: F10
# Method: as §6
# [8] = test system: Corynebacterium bovis 1810; experiment: as above; type: cell-based
# Method: as §6
# [9] = test system: Bacillus cereus ATCC10702; experiment: as above; type: cell-based
# Method: as §6
# [10] = test system: Staphylococcus aureus MS9610; experiment: as above; type: cell-based
# Method: as §6
# [11] = test system: Staphylococcus aureus Smith; experiment: as above; type: cell-based
# Method: as §6
# Cochliobolus miyabeanus = experiment: as above; type: cell-based; conditions: Bipolaris oryzae
# Method: as §6
# Micrococcus luteus FDA16 = experiment: as above; type: cell-based
# Method: as §6
# Salmonella typhi T-63 = experiment: as above; type: cell-based; conditions: Salmonella enterica
# Proteus rettgeri GN311 = experiment: as above; type: cell-based; conditions: Providencia rettgeri, GN311, read-out: Minimum growth-inhibition concentration
# mouse = experiment: Toxicity on administration to the abdominal cavity; type: in vivo; conditions: 100 mg/kg
# Source text: Benastatins A and B were each administered to the abdominal cavity of a mouse to examine the toxicity thereof.
# [12] = test system: murine spleen cells (Con A-induced lymphocyte blastogenesis); experiment: Effect on Con A-induced murine lymphocyte blastogenesis in vitro (Test 4); type: cell-based, BALB/c mouse; conditions: Mus musculus, 72 h
# Method: as §1, §2, §3, §4, §5
# Aspergillus niger F-16 = experiment: Agar dilution assay, minimum growth inhibition concentration; type: cell-based; conditions: Aspergillus niger, F16, read-out: Minimum growth-inhibition concentration
# [13] = Mus musculus, Lymphocyte, 72 h, read-out: Stimulation index LPS
# [14] = read-out: Stimulation index Con A
structure (smiles),measurement,setting,value
"CCCCCc1cc2c(c(O)c1C(=O)O)-c1cc3c(c(O)c1CC2)C(=O)c1c(O)cc(O)cc1C3(C)C [Benastatin B, benastatin B]",MIC,Pyricularia oryzae,50 µg/mL
same,MIC,Escherichia coli NIHJ,100 µg/mL
same,MIC,Candida tropicalis F-1,> 50 µg/mL
same,activity at 6.25 µg/mL,[1]; [13],138%
same,activity at 12.5 µg/mL,[1]; [13],58.9%
same,activity at 50 µg/mL,[1]; [13],0.4%
same,activity at 3.13 µg/mL,"[1]; Mus musculus, Lymphocyte, 72 h, 3.13 μg/ml, control = 100, read-out: Stimulation index LPS",148%
same,activity at 25 µg/mL,"[1]; Mus musculus, Lymphocyte, 72 h, 25 μg/ml, control = 100, read-out: Stimulation index LPS",0.2%
same,activity at 100 µg/mL,"[1]; Mus musculus, Lymphocyte, 72 h, 100 μg/ml, control = 100, read-out: Stimulation index LPS",0.2%
same,minimal effective concentration,"[1]; Mus musculus, Lymphocyte, 72 h, read-out: concentration that significantly suppresses LPS-induced lymphocyte blast formation",≥ 12.5 µg/mL
same,effect on LPS-induced lymphocyte blast formation at a low concentration,[1]; low concentration,potentiates
same,Spleen/body weight,[2]; 0.5 mg/kg,12.5 ± 2.2 mg/kg
same,Index (spleen/body weight; non induced = 1.00),[2]; 0.5 mg/kg,2.78
same,Spleen/body weight,[2]; 5 mg/kg,11.5 ± 0.8 mg/kg
same,Index (spleen/body weight; non induced = 1.00),[2]; 5 mg/kg,2.56
same,Spleen/body weight,[2]; 50 mg/kg,10.6 ± 1.3 mg/kg
same,Index (spleen/body weight; non induced = 1.00),[2]; 50 mg/kg,2.36
same,effect on GvH,"[2]; various amounts, strongest in a lower amount",significantly promotes GvH
same,MIC,[3],> 50 µg/mL
same,MIC,[4],> 50 µg/mL
same,MIC,[5],50 µg/mL
same,MIC,[6],3.12 µg/mL
same,MIC,[7],50 µg/mL
same,MIC,[8],3.12 µg/mL
same,MIC,[9],3.12 µg/mL
same,MIC,[10],3.12 µg/mL
same,MIC,[11],3.12 µg/mL
same,MIC,Cochliobolus miyabeanus,> 25 µg/mL
same,MIC,Micrococcus luteus FDA16,3.12 µg/mL
same,MIC,Salmonella typhi T-63,> 50 µg/mL
same,MIC,Proteus rettgeri GN311,50 µg/mL
same,Toxicity,mouse,No toxicity was observed
same,activity at 3.13 µg/mL,"[12]; 3.13 μg/ml, control = 100, read-out: Stimulation index Con A",106%
same,activity at 25 µg/mL,"[12]; 25 μg/ml, control = 100, read-out: Stimulation index Con A",1%
same,activity at 100 µg/mL,"[12]; 100 μg/ml, control = 100, read-out: Stimulation index Con A",0.9%
same,activity at 6.25 µg/mL,[12]; [14],12.6%
same,activity at 12.5 µg/mL,[12]; [14],26.8%
same,activity at 50 µg/mL,[12]; [14],1%
same,minimal effective concentration,[12]; read-out: concentration that significantly suppresses Con A-induced lymphocyte blast formation,≥ 6.25 µg/mL
same,MIC,Aspergillus niger F-16,> 100 µg/mL

# From patent US5117052A, “Physiologically active substances, benastatins A and B, and production and use thereof” (priority 1990, dated 1992)
